Results as given in the supplement of paper PMC11208160.

assay: recombinant barcode read abundance after kanamycin selection (control-corrected) (log10(CPM+1)); higher = more efficient recombination; sequences stand for … in AGTGCAGAGAAAATCGGCCAGTTTTCTCTGCCTGCAGTCCGCATGCCGT…AGATTTATGCAGCGGACTGCCTTTCTCCCAAAGTGATAAACCGGACAGTATCATGGACCGGTTTTCCCGGTAATCCGTATTTGCAAGGTTGGTTTCACT; site = the 11-nt target
Experimental: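 Pooled E. coli target-specificity screen for the IS621 bridge recombinase. Each library plasmid pairs an 11-nt target (CT core) with a bridge RNA whose target-binding loop (9-nt LTG + 4-nt RTG) is reprogrammed; the rest of the 177-nt WT IS621 bridge RNA scaffold is fixed. The plasmid is co-electroporated with a WT donor plasmid; recombinase is induced with 0.1 mM IPTG and recombinants are selected on kanamycin. Recombinant barcodes are sequenced, converted to CPM, averaged over two biological replicates and corrected by the unselected control CPM. Molecule = full bridge RNA written as DNA: LTG = specificity nt 1-9, RTG = reverse complement of specificity nt 8-11, in the WT scaffold.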
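For recombinant UMI read abundance after kanamycin selection (control-corrected) in this document: IS621 bridge recombinase in Escherichia coli cells against a fixed T5 target plasmid.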
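For recombinant barcode read abundance after kanamycin selection (control-corrected) in this document: IS621 recombinase and bridge RNA in Escherichia coli cells.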

| Sequence | recombinant barcode read abundance (log10) |
| --- | --- |
| ACGACTCCTTGGGTTCTAACCTGTTGCTG (site ACGGCTCCTCA) | 0.0665 |
| CCGATATCTTGGGTTCTAACCTGTTGCCT (site CCGCTATCTAG) | 0.707 |
| CGATGGACTTGGGTTCTAACCTGTTGCCG (site CAATGGGCTCG) | 0.102 |
| TATCCGACTTGGGTTCTAACCTGTTGCCA (site TATCCGACTCG) | 0.142 |
| CGCTTGTCTTGGGTTCTAACCTGTTGCCT (site CGCTTGTCTAG) | 0.15 |
| GACTCTCCTTGGGTTCTAACCTGTTGCGT (site GACTCTCCTAT) | 0.321 |
| TATGGTTCTTGGGTTCTAACCTGTTGCCT (site TATGCTTCTAA) | 0.0349 |
| GGGATGTCTTGGGTTCTAACCTGTTGCCT (site GCGATGTCTAG) | 0.128 |
| GAGCGCACTTGGGTTCTAACCTGTTGCGG (site GAGCGCACTCC) | 2.13 |
| AGAGGGTCTTGGGTTCTAACCTGTTGCTT (site AGAGGGTCTAA) | 1.82 |
| GAGGGTCCTTGGGTTCTAACCTGTTGCGT (site GAGGGTCCTAT) | 2.29 |
| AGATTGACTTGGGTTCTAACCTGTTGCCA (site AGATTCACTAG) | 0.328 |
| ACGTCACCTTGGGTTCTAACCTGTTGCCT (site TCGTCACCTAG) | 0.17 |
| TTAGGGTCTTGGGTTCTAACCTGTTGCCT (site TTAGGGTCTAG) | 2.15 |
| TACGAACCTTGGGTTCTAACCTGTTGCGT (site TAGGAGCCTAC) | 0.335 |
| ACGCCTCCTTGGGTTCTAACCTGTTGCTG (site ACGACTCCTCA) | 0.0447 |
| GTATGCCCTTGGGTTCTAACCTGTTGCTA (site GTATGCCCTTA) | 1.12 |
| TACCTATCTTGGGTTCTAACCTGTTGCGT (site TACCTATCTAC) | 1.83 |
| CGTATCCCTTGGGTTCTAACCTGTTGCTG (site CGTCTCCCTAA) | 0.155 |
| GCTACCTCTTGGGTTCTAACCTGTTGCCT (site GCTACCTCTAG) | 1.6 |
| CGTACCTCTTGGGTTCTAACCTGTTGCTC (site CGTACCTCTGA) | 0.171 |
| ACGCGTGCTTGGGTTCTAACCTGTTGCGG (site ACGCGTGCTCC) | 0.727 |
| GAGCACCCTTGGGTTCTAACCTGTTGCCA (site GAGCTCACTTG) | 0.0464 |
| CAAAGAGCTTGGGTTCTAACCTGTTGCTG (site GTCCAGCCTGT) | 0.0339 |

| Sequence | recombinant barcode read abundance (log10) |
| --- | --- |
| GGGAACCCTTGGGTTCTAACCTGTTGCTA (site GGGAACCCTGA) | 0.0297 |
| CGCTGATCTTGGGTTCTAACCTGTTGCCT (site AGCTGATCTAG) | 0.0494 |
| CGGAAGTCTTGGGTTCTAACCTGTTGCCT (site CGGAAGCCTAG) | 0.452 |
| ATAATAGCTTGGGTTCTAACCTGTTGCCT (site ATAAAAGCTAG) | 0.0804 |
| AACTATCCTTGGGTTCTAACCTGTTGCAT (site AACTCTCCTAT) | 0.109 |
| TAGAATCCTTGGGTTCTAACCTGTTGCAA (site TAGAATCCTTT) | 0.147 |
| GGGGCGTCTTGGGTTCTAACCTGTTGCCG (site GGGCAGTCTCG) | 0.201 |
| TAGTTAGCTTGGGTTCTAACCTGTTGCCC (site TAGTTAGCTGG) | 0.945 |
| GAAGTAACTTGGGTTCTAACCTGTTGCCT (site GATGTAACTAG) | 0.0965 |
| AGACGGACTTGGGTTCTAACCTGTTGCCA (site CTTGCTCCTAT) | 0.145 |
| AGGATTCCTTGGGTTCTAACCTGTTGCCT (site AAGATTCCTAG) | 0.171 |
| TACTAAGCTTGGGTTCTAACCTGTTGCAT (site TACTAAGCTAT) | 0.523 |
| CTACAGACTTGGGTTCTAACCTGTTGCGG (site CTACAGACTCC) | 2.61 |
| CTTGCGACTTGGGTTCTAACCTGTTGCTT (site TGCATAGCTTG) | 0.0884 |
| ATGACTACTTGGGTTCTAACCTGTTGCTC (site ATGACTACTTA) | 0.135 |
| TGGCACCCTTGGGTTCTAACCTGTTGCGG (site TGGCACCCTCC) | 2.42 |
| CCTGAATCTTGGGTTCTAACCTGTTGCCT (site CCTGACTCTAG) | 0.19 |
| ACTAGTGCTTGGGTTCTAACCTGTTGCCT (site ATTAGTGCTAG) | 0.0112 |
| GGTGCGGCTTGGGTTCTAACCTGTTGCCT (site TGTGCGGCTAG) | 0.505 |
| ACTTGAACTTGGGTTCTAACCTGTTGCTT (site ACTTTAGCTAA) | 0.0785 |
| TTGGTGCCTTGGGTTCTAACCTGTTGCCT (site TTGGTGCCTAG) | 2.13 |
| GGTCATTCTTGGGTTCTAACCTGTTGCCT (site GGTCATTCTAG) | 0.626 |
| GAACGGGCTTGGGTTCTAACCTGTTGCGG (site GAACGGGCTCC) | 1.33 |
| CATCCCTCTTGGGTTCTAACCTGTTGCTT (site CATCCCTCTAA) | 1.51 |

| Sequence | recombinant barcode read abundance (log10) |
| --- | --- |
| TAGTGCTCTTGGGTTCTAACCTGTTGCCG (site TAGTGCTCTCG) | 1.24 |
| CCGCAGACTTGGGTTCTAACCTGTTGCCA (site CCGCAGACTTG) | 0.0394 |
| TTAGCATCTTGGGTTCTAACCTGTTGCCT (site TTAGCGTCTAG) | 0.161 |
| TTCAAGCCTTGGGTTCTAACCTGTTGCGT (site TTCAAGCCTAC) | 1.17 |
| GTCGGGACTTGGGTTCTAACCTGTTGCCT (site GTCGGCACTAG) | 0.113 |
| TCGAACCCTTGGGTTCTAACCTGTTGCCT (site TCGAATCCTAG) | 0.151 |
| CTATGACCTTGGGTTCTAACCTGTTGCAT (site CTATGACCTAT) | 0.568 |
| GCAGCGACTTGGGTTCTAACCTGTTGCCT (site GCAGCGACTAG) | 1.78 |
| GCAAATCCTTGGGTTCTAACCTGTTGCCT (site GCAAATCCTAG) | 0.873 |
| GTAATCCCTTGGGTTCTAACCTGTTGCCA (site GTAATCCCTTG) | 1.32 |
| AGGCCCACTTGGGTTCTAACCTGTTGCTC (site AGGCCCACTGA) | 1.81 |
| CTGCGCCCTTGGGTTCTAACCTGTTGCCT (site CTGGGCCCTAG) | 0.249 |
| GGTTCTCCTTGGGTTCTAACCTGTTGCCT (site GGTTCTCCTAG) | 0.288 |
| CAGTCAGCTTGGGTTCTAACCTGTTGCCT (site GTAAGGACTCC) | 0.0866 |
| TTGAGGACTTGGGTTCTAACCTGTTGCGT (site TTGAGGACTTG) | 0.147 |
| GTCAGGGCTTGGGTTCTAACCTGTTGCCT (site GTCAGGGCTAG) | 0.275 |
| GGTATGTCTTGGGTTCTAACCTGTTGCCT (site GGTATGTCTAG) | 1.96 |
| GGTCATTCTTGGGTTCTAACCTGTTGCCT (site GGTCATCCTAG) | 0.157 |
| CAGTCCTCTTGGGTTCTAACCTGTTGCTG (site CCGTCCTCTCA) | 0.0321 |
| CGATTAGCTTGGGTTCTAACCTGTTGCCT (site CGATTAACTAG) | 0.161 |
| TCTTAGACTTGGGTTCTAACCTGTTGCGA (site TCTTAGACTTC) | 0.638 |
| TGTTCCTCTTGGGTTCTAACCTGTTGCCT (site TGTACCTCTAG) | 0.143 |

assay: recombinant UMI read abundance after kanamycin selection (control-corrected) (log10(CPM+1)); higher = more efficient recombination; extreme values may be limits of the assay; sequences stand for … in AGTGCAGAGAAAATCGGCCAGTTTTCTCTGCCTGCAGTCCGCATGCCGTGGGACCCCTTGGGTTCTAACCTGTTGCCTAGATTTATGCAGCGGACTGCCTTTCTCCCAAAGTGATAAACCGG…AGGTTGGTTTCACT; site = the 11-nt donor
Summary of the method: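 Each donor and donor-binding-loop pair was tracked by a 12-nt UMI on a plasmid carrying a promoterless kanamycin gene. With a second plasmid supplying a fixed target and T7-inducible IS621 bridge recombinase, the pool was plated in Escherichia coli on IPTG (0.07 mM) plus kanamycin or unselected. Sequencing of recombinant UMIs across the donor–target junction gave counts expressed as log10(CPM+1) after replicate averaging and control-derived scaling.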

| Sequence | recombinant UMI read abundance (log10) |
| --- | --- |
| TGCTGGGCATGGACCGGTTTTCCCGGTAATCCGTATTTGGT (site TGCTCGGCTAC) | 0.0121 |
| GTTGTTCCATGGACCGGTTTTCCCGGTAATCCGTATTTGGT (site GTTGTTCCTAA) | 0.00913 |
| CACACCTCATGGACCGGTTTTCCCGGTAATCCGTATTTGCC (site CACACCTCTGG) | 2.87 |
| CTACTATCATGGACCGGTTTTCCCGGTAATCCGTATTTGGA (site CTACTAGCTTC) | 0.0148 |
| CTAGTGTCATGGACCGGTTTTCCCGGTAATCCGTATTTGAC (site CTAGTCTCTGT) | 0 |
